For 15 compounds, GI50 and TGI results are on record in PubChem BioAssay (NCI).

Common to all, as to experiment: inhibition of tumour cell growth, NCI panel, 48 h
The subject of assay [1] is CAKI-1 renal.
Assay [2] relates to EKVX NSCLC.
Assay [3] has as its system K-562 leukemia.
In assay [4] the test system is MALME-3M melanoma.
In assay [5] the test system is MCF7 breast.
For assay [6], the system named is MDA-MB-231 breast.
Assay [7] deals with OVCAR-8 ovarian.
For assay [8], the system named is SF-268 CNS.
The test system of assay [9] is SF-295 CNS.
Assay [10] has as its system SK-MEL-28 melanoma.

Several values for one entry are separate records, joined by “and”; a condition that tells them apart may be missing. Equal entries are not always repeated.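 How tested: cells in 96-well plates exposed to compound for 48 hours at five concentrations. GI50 = concentration required for 50% inhibition of growth. TGI: concentration producing complete growth inhibition.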

Turning to `CC(=O)c1cc(C(=O)c2ccc3c(c2)Sc2ccccc2N3)c2c(C)cc(C)cn12`, the GI50 in assay [1] was 0.529 µM; in [2], 0.636 µM; in assay [3], 0.222 µM; in [4], 5.73 µM; in [5] it was 0.239 µM; in [6] it was 0.458 µM. Besides, the GI50 in assay [7] is 0.405 µM; in assay [8] it was 0.533 µM; in [9], 0.187 µM; in assay [10], 3.64 µM. Also, the TGI was 72.9 µM in assay [1]; > 100 µM in assay [2]; > 100 µM in assay [3]; > 100 µM in assay [4]; > 100 µM in assay [5]; 8.95 µM in assay [6]. For the same compound, the TGI was > 100 µM in assay [7], > 46.3 µM in assay [8], 0.94 µM in assay [9] and > 100 µM in assay [10].

On to `N/N=C(\C(=O)Nc1ccc(Cl)cc1Cl)C(c1cnc2ccccc2n1)[N+](=O)[O-]` (stereo not drawn), for which the TGI in assay [1], in assay [2], in [3], in assay [4], in assay [5] and in assay [6] was > 100 µM in each case. Also, the TGI in assay [7], in [8], in assay [9] and in assay [10] was > 100 µM each time.

Regarding `CNC(=O)OCc1c2ccncc2c(C)c2c1[nH]c1ccccc12`, the TGI in [1] is 1.25 µM; in assay [2], 2.24 µM; in assay [3], > 100 µM; in assay [4], 1.24 µM; in assay [5], 1.24 µM; in assay [6], 2.87 µM. Also, the TGI in assay [7] stood at 2.16 µM; in assay [8], 1.65 µM; in assay [9], 4.66 µM; in assay [10] it was 2.25 µM.

Regarding `c1cc2[nH]ncc2cc1-c1nc2ccc3[nH]ncc3c2c2c1CCCC2`, the GI50 in assay [1] is 0.434 µM; in assay [2], 1.91 µM; in assay [3], 0.468 µM; in assay [4], 1.08 µM; in assay [5], 0.736 µM; in assay [6], 2.67 µM. Besides, the GI50 in [7] is 2.66 µM; in [8] it was 2.31 µM; in assay [9] it was 1.84 µM; in assay [10] it was 1.28 µM. Besides, the TGI in assay [1] was 5.62 µM; in assay [2], 9.15 µM; in assay [3] it was > 44 µM; in [4] it was 4.22 µM; in assay [5], 11.2 µM; in [6], 11.6 µM. In addition, the TGI is 15.9 µM in [7], 14 µM in assay [8], 7.58 µM in assay [9] and 5.88 µM in assay [10].

`O=C1Nc2c(C(F)(F)F)cccc2[C@@]1(c1ccc(O)cc1)c1ccc(OC(F)(F)F)cc1`: the GI50 was 0.0364 µM in assay [1]; 0.0134 µM in [2]; 0.183 µM in assay [3]; 12.4 µM in assay [4]; < 0.01 µM in [5]; 0.222 µM in assay [6]. Moreover, the GI50 in assay [7] is < 0.01 µM; in [8], 0.327 µM; in assay [9] it was 0.0193 µM; in [10], 13.3 µM. The TGI in assay [1] was 0.971 µM; in assay [2], 0.0351 µM; in assay [3], 20.7 µM; in assay [4], 25 µM; in assay [5], 0.0269 µM; in [6], 18.2 µM. For the same compound, the TGI in assay [7] worked out at 0.0102 µM; in assay [8], 17.5 µM; in assay [9] it was 0.0469 µM; in assay [10], 27.7 µM.

For `CC(C)(C)C(=O)OCOP(=O)(OCOC(=O)C(C)(C)C)C1CC(O)N(O)C1=O` (stereo not drawn), the GI50 in assay [1] was 4.87 µM; in assay [2], 10.8 µM; in assay [3], 3.66 µM; in [4], 2.82 µM; in assay [5], 3.32 µM; in assay [6] it was 3.65 µM. The GI50 in [7] was 4.73 µM; in [8], 3.54 µM; in [9] it was 15.7 µM; in assay [10] it was 2.38 µM. For the same compound, the TGI was > 100 µM in assay [1]; > 100 µM in [2]; > 100 µM in assay [3]; > 100 µM in assay [4]; > 100 µM in assay [5]; 40.9 µM in assay [6]. The TGI in [7] was > 100 µM; in assay [8], > 100 µM; in assay [9] it was > 100 µM; in assay [10] it was 6.44 µM.

With `COC(=O)[C@]12CC[C@@H](C)[C@H](C)[C@@H]1C1=CC[C@@H]3[C@@]4(C)C(C=O)=C[C@@](C)(COC(C)=O)C4=CC[C@@]3(C)[C@]1(C)CC2`, the GI50 was 3.66 µM in assay [1]; 4.13 µM in assay [2]; 4.1 µM in assay [3]; 3.74 µM in assay [4]; 2.99 µM in [5]; 5.74 µM in [6]. Besides, the GI50 was 4.46 µM in assay [7], 4.38 µM in assay [8], 2.98 µM in [9] and 3.22 µM in assay [10]. Also, the TGI worked out at 17 µM in assay [1]; 16.1 µM in [2]; 15.3 µM in assay [3]; 15.5 µM in assay [4]; 12.5 µM in assay [5]; 23.5 µM in assay [6]. The TGI in [7] was 18.9 µM; in [8], 17 µM; in [9], 11.9 µM; in assay [10], 12.3 µM.

In the case of `Cc1cc(O)ccc1C1=NN(c2ccc(S(C)(=O)=O)cc2)C(=O)CC1`, the GI50 in [1] is 2.79 µM; in [2], 57.9 µM; in assay [3], 3.74 µM; in assay [4], 5.37 µM; in assay [5], 20.7 µM; in assay [6], 17.1 µM. The GI50 in [7] was 12.3 µM; in assay [8], 40 µM; in assay [9], 2.87 µM; in [10], 9.55 µM. For the same compound, the TGI in [1] is 16.5 µM; in assay [2] it was > 100 µM; in assay [3], > 100 µM; in assay [4] it was > 100 µM; in [5] it was > 100 µM; in assay [6], > 100 µM. Further, the TGI is > 100 µM in [7], > 100 µM in assay [8], 12.4 µM in assay [9] and > 100 µM in assay [10].

For the compound `CC1COc2c(N3CCN(C)CC3)c(F)cc3c(=O)c(C(=O)O)cn1c23` (stereo not drawn), the GI50 in [1] was > 100 µM; in [2] it was > 100 µM; in [3], 96.8 µM; in assay [4], > 100 µM; in [5], > 100 µM; in assay [6] it was 81.7 µM. The GI50 in [7], in assay [8], in assay [9] and in [10] was > 100 µM throughout. Besides, the TGI in assay [1], in [2], in [3], in assay [4], in assay [5] and in assay [6] was > 100 µM in each case. The TGI in [7], in assay [8], in assay [9] and in [10] was > 100 µM throughout.

In the case of `COc1ccc(C(=O)COC(=O)[C@H](C[Se][Se]C[C@H](NC(=O)c2ccc(Br)cc2F)C(=O)OCC(=O)c2ccc(OC)cc2)NC(=O)c2ccc(Br)cc2F)cc1`, the GI50 was 1 µM in assay [1]; 0.591 µM in [2]; 3.3 µM in assay [3]; 2.04 µM in [4]; 1.52 µM in assay [5]; 0.846 µM in assay [6]. In addition, the GI50 was 0.513 µM in assay [7], 0.943 µM in [8], 0.211 µM in [9] and 1.59 µM in assay [10]. Further, the TGI in assay [1] is 2.97 µM; in assay [2], 2.35 µM; in assay [3], > 55 µM; in assay [4], 4.4 µM; in assay [5], 4.1 µM; in assay [6] it was 2.77 µM. The TGI in assay [7] amounted to 1.86 µM; in assay [8] it was 3.21 µM; in [9] it was 0.61 µM; in assay [10], 5.61 µM.

As for `O=[N+]([O-])c1ccccc1N/N=C\c1c[nH]c2ccccc12`, the GI50 is 3.93 µM in [1]; 2.49 µM in [2]; 4.53 µM in [3]; 28.8 µM in [4]; 0.85 µM in assay [5]; 2.98 µM in assay [6]. Moreover, the GI50 was 12 µM in assay [7], 9.04 µM in assay [8], 9.5 µM in assay [9] and > 100 µM in [10]. The TGI was > 100 µM in assay [1]; > 100 µM in [2]; > 100 µM in assay [3]; > 87.1 µM in assay [4]; > 100 µM in assay [5]; 20.5 µM in assay [6]. Moreover, the TGI in [7] is 29.4 µM; in [8], > 100 µM; in [9], 33 µM; in [10], > 100 µM.

For the compound `CC1=CC(=C(c2ccc(N)cc2)c2ccc(N)cc2)C=CC1=N`, the GI50 was 3.35 µM and 8.97 µM in assay [1]; 1.37 µM and 2.23 µM in [2]; 0.369 µM in assay [3]; 0.771 µM in [4]; 0.803 µM and 2.32 µM in assay [5]; 2.33 µM and 2.87 µM in assay [6]. The GI50 was 0.759 µM and 1.51 µM in assay [7]; 0.668 µM in assay [8]; 1.03 µM and 1.32 µM in [9]; 0.789 µM and 4.57 µM in assay [10]. The TGI in [1] is 13.9 µM and 51.7 µM and 35.6 µM; in assay [2] it was 20 µM and 70.8 µM and 41.5 µM; in assay [4], 6.18 µM and 11.2 µM and 11.7 µM; in [5] it was 11.4 µM and > 66.8 µM and 21.1 µM; in [7] it was 34.5 µM and 31.4 µM and 12.4 µM; in [8], 14.4 µM and 19.4 µM and 14.5 µM. Further, the TGI in [9] is 5.82 µM and 7.65 µM and 6.06 µM; in assay [10], 7.89 µM and 36.8 µM and 19.6 µM.

Regarding `CS(=O)(=O)Nc1ccc(-c2cc(-c3ccccc3)cc(C(N)=O)c2N)cc1`, the GI50 in assay [1] is > 22.6 µM; in assay [2], > 25 µM; in assay [3], 15.8 µM; in assay [4] it was > 25 µM; in [5], > 20.5 µM; in assay [6], > 25 µM. The GI50 in assay [7] is > 22.6 µM; in assay [8], > 25 µM; in assay [9], 24.6 µM; in assay [10], > 25 µM. Besides, the TGI in assay [1], in assay [2], in [3], in assay [4], in assay [5] and in [6] was > 25 µM each time. Further, the TGI in [7], in [8], in [9] and in assay [10] was > 25 µM each time.

Consider `Clc1ccc2c(c1)N(c1ncnc3ccc(-c4cnc5[nH]ccc5c4)cc13)CC2`, for which the GI50 in assay [1] was 3 µM; in [2], 0.789 µM; in assay [3], 0.542 µM; in assay [4], 1.08 µM; in assay [5] it was 0.54 µM; in assay [6], 2.01 µM. Further, the GI50 was 3.25 µM in assay [7], 3.14 µM in [8], 0.88 µM in assay [9] and 10.2 µM in assay [10]. The TGI in assay [1] is 25.7 µM; in assay [2], 34.4 µM; in [3], > 100 µM; in [4], 19.5 µM; in [5], > 100 µM; in assay [6], 19.3 µM. Further, the TGI in [7] is 29.5 µM; in assay [8], 24.1 µM; in assay [9], 19.7 µM; in assay [10] it was 27.7 µM.

With `COc1ccc2c(c1)[nH]c(=O)c1c3cc(OC)ccc3cn21`, the GI50 was < 0.01 µM in assay [1]; 0.0728 µM in [2]; < 0.01 µM in [3]; 0.139 µM in assay [4]; 0.0277 µM in assay [5]; 0.0431 µM in assay [6]. Also, the GI50 was 0.0343 µM in [7], < 0.0154 µM in assay [8], < 0.01 µM in assay [9] and 0.0102 µM in assay [10]. Further, the TGI in [1] was < 0.01 µM; in assay [2], 2.67 µM; in assay [3] it was 0.0486 µM; in assay [4], 1.88 µM; in assay [5] it was 0.597 µM; in assay [6] it was 0.985 µM. The TGI in assay [7] was found to be 1.57 µM; in [8] it was 1.44 µM; in [9], 0.18 µM; in [10] it was 2.01 µM.
